pIC50: −log10 of the molar value.
Assays:
[1] = target: T1, Phosphatidylinositol 4,5-bisphosphate 3-kinase catalytic subunit delta isoform (Homo sapiens) (UniProt O00329); test: Antagonist activity at PI3Kdelta (unknown origin) assessed as inhibition rate at 20 nM using PIP2 as substrate in presence of ATP incubated for 30 to 60 mins by ADP-glo based luminescence assay relative to control; conditions: time 30-60 min
T1 sequence (whole entry): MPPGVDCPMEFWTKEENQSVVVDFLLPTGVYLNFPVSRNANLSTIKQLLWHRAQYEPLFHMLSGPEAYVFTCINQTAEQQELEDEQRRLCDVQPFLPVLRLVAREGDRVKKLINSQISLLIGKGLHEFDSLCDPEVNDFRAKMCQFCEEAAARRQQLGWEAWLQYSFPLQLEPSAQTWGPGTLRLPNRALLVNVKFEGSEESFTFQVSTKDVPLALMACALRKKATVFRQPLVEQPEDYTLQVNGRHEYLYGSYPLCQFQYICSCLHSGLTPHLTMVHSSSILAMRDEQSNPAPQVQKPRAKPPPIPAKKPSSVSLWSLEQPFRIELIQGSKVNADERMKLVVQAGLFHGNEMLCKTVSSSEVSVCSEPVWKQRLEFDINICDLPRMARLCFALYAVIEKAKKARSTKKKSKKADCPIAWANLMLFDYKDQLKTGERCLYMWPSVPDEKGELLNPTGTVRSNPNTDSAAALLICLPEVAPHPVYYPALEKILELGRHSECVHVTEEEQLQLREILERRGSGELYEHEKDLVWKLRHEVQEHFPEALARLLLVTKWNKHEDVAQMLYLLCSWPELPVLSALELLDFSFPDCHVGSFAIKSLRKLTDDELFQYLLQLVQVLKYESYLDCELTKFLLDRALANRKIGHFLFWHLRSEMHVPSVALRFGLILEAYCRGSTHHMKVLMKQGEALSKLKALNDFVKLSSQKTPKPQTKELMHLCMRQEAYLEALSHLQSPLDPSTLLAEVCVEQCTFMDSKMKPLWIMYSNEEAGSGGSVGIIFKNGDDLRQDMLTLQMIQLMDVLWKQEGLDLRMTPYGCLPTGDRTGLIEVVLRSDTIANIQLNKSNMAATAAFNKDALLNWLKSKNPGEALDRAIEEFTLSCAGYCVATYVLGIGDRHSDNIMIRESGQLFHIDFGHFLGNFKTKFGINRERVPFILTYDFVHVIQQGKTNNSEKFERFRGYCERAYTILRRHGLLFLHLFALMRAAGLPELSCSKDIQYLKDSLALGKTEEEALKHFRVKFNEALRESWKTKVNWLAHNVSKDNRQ

[2] = target: Phosphatidylinositol 4,5-bisphosphate 3-kinase catalytic subunit gamma isoform (Homo sapiens, UniProt P48736); test: Antagonist activity at PI3Kgamma (unknown origin) assessed as inhibition rate at 20 nM using PIP2 as substrate in presence of ATP incubated for 30 to 60 mins by ADP-glo based luminescence assay relative to control; conditions: time 30-60 min
Phosphatidylinositol 4,5-bisphosphate 3-kinase catalytic subunit gamma isoform, sequence (P48736 whole entry, looked up, canonical isoform): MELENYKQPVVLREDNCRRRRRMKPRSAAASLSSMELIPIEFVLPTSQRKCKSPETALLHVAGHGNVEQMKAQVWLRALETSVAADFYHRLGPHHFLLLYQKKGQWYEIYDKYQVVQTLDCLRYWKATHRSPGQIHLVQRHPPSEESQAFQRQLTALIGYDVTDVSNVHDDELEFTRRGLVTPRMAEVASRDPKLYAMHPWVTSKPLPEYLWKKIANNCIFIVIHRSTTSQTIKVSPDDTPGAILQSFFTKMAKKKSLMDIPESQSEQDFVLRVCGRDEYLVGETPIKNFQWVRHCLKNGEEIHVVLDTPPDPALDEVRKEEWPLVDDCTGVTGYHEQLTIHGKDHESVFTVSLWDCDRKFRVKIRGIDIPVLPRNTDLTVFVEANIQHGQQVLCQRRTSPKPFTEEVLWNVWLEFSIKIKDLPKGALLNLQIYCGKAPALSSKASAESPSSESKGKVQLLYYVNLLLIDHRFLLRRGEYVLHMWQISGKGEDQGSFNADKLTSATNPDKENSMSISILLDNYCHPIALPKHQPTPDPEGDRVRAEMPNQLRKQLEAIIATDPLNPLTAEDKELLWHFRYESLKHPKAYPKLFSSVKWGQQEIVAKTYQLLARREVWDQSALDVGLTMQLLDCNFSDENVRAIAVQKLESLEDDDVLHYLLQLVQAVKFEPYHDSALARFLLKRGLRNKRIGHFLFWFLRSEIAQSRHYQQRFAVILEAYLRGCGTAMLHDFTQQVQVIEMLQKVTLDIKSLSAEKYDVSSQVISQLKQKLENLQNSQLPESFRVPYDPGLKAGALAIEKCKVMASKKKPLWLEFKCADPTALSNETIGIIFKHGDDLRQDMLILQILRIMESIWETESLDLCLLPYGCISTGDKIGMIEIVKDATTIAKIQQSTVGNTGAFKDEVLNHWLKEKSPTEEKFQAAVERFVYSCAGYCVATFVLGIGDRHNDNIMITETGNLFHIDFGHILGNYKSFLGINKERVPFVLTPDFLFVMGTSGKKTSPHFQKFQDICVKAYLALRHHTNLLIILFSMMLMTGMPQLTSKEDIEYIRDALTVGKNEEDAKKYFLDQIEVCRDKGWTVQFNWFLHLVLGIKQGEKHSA

[3] = Cytotoxicity against mouse L929 cells assessed as reduction in cell viability incubated for 24 hrs by CCK-8 assay; format: toxicity, cell-based
[4] = system: Jurkat; test: Cytotoxicity against human Jurkat cells assessed as reduction in cell viability incubated for 24 hrs by CCK-8 assay; format: functional, cell-based
[5] = system: RAW264.7; test: Cytotoxicity against mouse RAW264.7 cells assessed as reduction in cell viability incubated for 24 hrs by CCK-8 assay; format: functional, cell-based; conditions: RAW264.7, 24 h
[6] = system: THP-1; test: Cytotoxicity against human THP-1 cells assessed as reduction in cell viability incubated for 24 hrs by CCK-8 assay; format: functional, cell-based; conditions: THP-1, 24 h
[7] = system: MDA-MB-231; test: Cytotoxicity against human MDA-MB-231 cells assessed as reduction in cell viability incubated for 24 hrs by CCK-8 assay; format: functional, cell-based; conditions: MDA-MB-231, 24 h
[8] = system: 4T1; test: Cytotoxicity against mouse 4T1 cells assessed as reduction in cell viability incubated for 24 hrs by CCK-8 assay; format: functional, cell-based; conditions: 4T1, 24 h
[9] = system: T47D; test: Cytotoxicity against human T47D cells assessed as reduction in cell viability incubated for 24 hrs by CCK-8 assay; format: functional, cell-based
[10] = system: A549; test: Cytotoxicity against human A549 cells assessed as reduction in cell viability incubated for 24 hrs by CCK-8 assay; format: functional, cell-based; conditions: A549, 24 h
[11] = system: HepG2; test: Cytotoxicity against human HepG2 cells assessed as reduction in cell viability incubated for 24 hrs by CCK-8 assay; format: functional, cell-based; conditions: HepG2, 24 h
[12] = system: B16-F10; test: Cytotoxicity against mouse B16-F10 cells assessed as reduction in cell viability incubated for 24 hrs by CCK-8 assay; format: functional, cell-based; conditions: B16-F10, 24 h
[13] = system: MCF7; test: Cytotoxicity against human MCF7 cells assessed as reduction in cell viability incubated for 24 hrs by CCK-8 assay; format: functional, cell-based; conditions: MCF7, 24 h
[14] = system: Huh-7; test: Cytotoxicity against human Huh-7 cells assessed as reduction in cell viability incubated for 24 hrs by CCK-8 assay; format: functional, cell-based; conditions: Huh-7, 24 h

Structure (SMILES) | inhibition [1] [%] | inhibition [2] [%] | also measured
CC(NC(=O)c1cccc2c1OCCO2)c1cc2cccc(Cl)c2c(=O)n1-c1ccccc1 (stereo not drawn) | 32 | 9 | 
C[C@H](Nc1ncnc2[nH]cnc12)c1cc2cccc(Cl)c2c(=O)n1-c1ccccc1 [DUVELISIB] |  |  | IC50 at 24 h [3]: > 100 µM
CC(NC(=O)c1cnn2cccnc12)c1cc2cccc(C#Cc3ccccc3)c2c(=O)n1-c1ccccc1 (stereo not drawn) | 22 | 24 | 
CC(NC(=O)c1cncc(N2CCOCC2)n1)c1cc2cccc(Cl)c2c(=O)n1-c1ccccc1 (stereo not drawn) | 14 | 13 | 
CC(Nc1ncnc2[nH]cnc12)c1cc2cccc(C#Cc3ccc(N(C)C)cc3)c2c(=O)n1-c1ccccc1 (stereo not drawn) | 14 |  | inhibition ([2]; filed as antagonist): 46%
CC(NC(=O)c1c(N)nn2cccnc12)c1cc2cccc(C#CC3CC3)c2c(=O)n1-c1ccccc1 (stereo not drawn) | 17 | 33 | 
CC(NC(=O)c1cnn2cccnc12)c1cc2cccc(Cl)c2c(=O)n1-c1ccccc1 (stereo not drawn) | 13 | 36 | 
CCCCC#Cc1cccc2cc(C(C)Nc3ncnc4[nH]cnc34)n(-c3ccccc3)c(=O)c12 (stereo not drawn) | 21 | 33 | 
COc1ccc(C#Cc2cccc3cc(C(C)NC(=O)c4cnn5cccnc45)n(-c4ccccc4)c(=O)c23)cc1 (stereo not drawn) | 25 | 25 | 
CC(NC(=O)c1cnn2cccnc12)c1cc2cccc(C#Cc3ccc(C(F)(F)F)cc3)c2c(=O)n1-c1ccccc1 (stereo not drawn) |  | 27 | inhibition ([1]; filed as antagonist): 40%
CC(NC(=O)c1ccncc1N)c1cc2cccc(Cl)c2c(=O)n1-c1ccccc1 (stereo not drawn) | 24 | 33 | 
CC(NC(=O)c1c(N)nn2cccnc12)c1cc2cccc(C#CCN)c2c(=O)n1-c1ccccc1 (stereo not drawn) | 25 | 38 | 
CC(Nc1ncnc2[nH]cnc12)c1cc2cccc(C#CC3CC3)c2c(=O)n1-c1ccccc1 (stereo not drawn) |  |  | inhibition ([1]; filed as antagonist): 44%; inhibition ([2]; filed as antagonist): 43%
CC(NC(=O)c1ccc2occc2c1)c1cc2cccc(Cl)c2c(=O)n1-c1ccccc1 (stereo not drawn) | 8 | 11 | 
C[C@H](Nc1ncnc2nc[nH]c12)c1cc2cccc(Cl)c2c(=O)n1-c1ccccc1 [DUVELISIB] |  | 37 | inhibition ([1]; filed as antagonist): 66.7%; pIC50 [4]: 5.50; pIC50 [5]: 4.88; pIC50 [6]: 4.83; pIC50 [7]: 5.01; pIC50 [8]: 4.64; pIC50 [9]: < 4.00; pIC50 [10]: < 4.00; pIC50 [11]: < 4.00; pIC50 [12]: < 4.00; pIC50 [13]: < 4.00; pIC50 [14]: 5.18
CC(NC(=O)c1cnn2cccnc12)c1cc2cccc(C#Cc3ccc(N(C)C)cc3)c2c(=O)n1-c1ccccc1 (stereo not drawn) | 28 | 22 | 
CC(Nc1ncnc2[nH]cnc12)c1cc2cccc(C#Cc3ccc(C(F)(F)F)cc3)c2c(=O)n1-c1ccccc1 (stereo not drawn) | 14 |  | inhibition ([2]; filed as antagonist): 44%
CC(NC(=O)c1c(N)nn2cccnc12)c1cc2cccc(C#Cc3ccc(N(C)C)cc3)c2c(=O)n1-c1ccccc1 (stereo not drawn) | 18 | 28 | 
COCC#Cc1cccc2cc(C(C)NC(=O)c3c(N)nn4cccnc34)n(-c3ccccc3)c(=O)c12 (stereo not drawn) | 27 | 35 | 
COc1ccc(C#Cc2cccc3cc(C(C)NC(=O)c4c(N)nn5cccnc45)n(-c4ccccc4)c(=O)c23)cc1 (stereo not drawn) | 19 | 31 | 
CC(NC(=O)c1c(N)nn2cccnc12)c1cc2cccc(C#Cc3ccccc3)c2c(=O)n1-c1ccccc1 (stereo not drawn) | 25 | 27 | 
COCC#Cc1cccc2cc(C(C)Nc3ncnc4[nH]cnc34)n(-c3ccccc3)c(=O)c12 (stereo not drawn) | 26 |  | inhibition ([2]; filed as antagonist): 41%
CCCC#Cc1cccc2cc(C(C)NC(=O)c3c(N)nn4cccnc34)n(-c3ccccc3)c(=O)c12 (stereo not drawn) | 29 | 24 | 
CC(NC(=O)c1cncc2ccccc12)c1cc2cccc(Cl)c2c(=O)n1-c1ccccc1 (stereo not drawn) | 3 | 2 | 
CC(Nc1ncnc2[nH]cnc12)c1cc2cccc(C#Cc3ccccc3)c2c(=O)n1-c1ccccc1 (stereo not drawn) | 23 |  | inhibition ([2]; filed as antagonist): 51%
CCCc1ccc(C#Cc2cccc3cc(C(C)Nc4ncnc5[nH]cnc45)n(-c4ccccc4)c(=O)c23)cc1 (stereo not drawn) | 8 | 13 | 
CCCc1ccc(C#Cc2cccc3cc(C(C)NC(=O)c4c(N)nn5cccnc45)n(-c4ccccc4)c(=O)c23)cc1 (stereo not drawn) | 27 | 22 | 
CC(NC(=O)c1c(N)nn2cccnc12)c1cc2cccc(C#Cc3ccc(C(F)(F)F)cc3)c2c(=O)n1-c1ccccc1 (stereo not drawn) | 17 | 37 | 
CC(Nc1ncnc2c1ncn2C)c1cc2cccc(Cl)c2c(=O)n1-c1ccccc1 (stereo not drawn) | 28 | 35 | 
